Article PMC11944515, “Host-Mediated Antimicrobial Effects and NLRP3 Inflammasome Modulation by Caulerpin and Its Derivatives in Macrophage Models of Mycobacterial Infections” (Microorganisms, 2025)

Legend:
[1] = test system: M. smegmatis within RAW 264.7 macrophages; experiment: Preventive effects (pre-incubation) in M. smegmatis-infected RAW 264.7 cells (CFU); assay type: cell-based, Mycobacterium smegmatis; settings: for reduction of bacterial loads after pre-incubation, M. smegmatis / reduction of CFU counts after re-treatment, M. smegmatis: 15 μM; for reduction of CFU counts after re-treatment, M. smegmatis: pre-incubation and re-treatment, 12 h after infection
Description: For the second in vitro cellular infection test with M. smegmatis, RAW 264.7 were seeded in 96-well culture plates at a density of 1 × 10^4 cells/well in DMEM medium (with 10% FBS, without antibiotics) and incubated overnight at 37 °C with 5% CO2. Cells were pre-incubated with CP (15 μM), CA (30 μM), DE (15 μM), and DP (15 μM) for 8 h in DMEM medium. Infection of RAW 264.7 cells with M. smegmatis was performed at a multiplicity of infection of 1:1 for 2 h at 37 °C with 5% CO2 [20]. Infected RAW 264.7 were then lysed with 0.1% Triton–X100, and these suspensions were diluted and plated on LB agar. Remaining wells were then re-treated with the tested substances in DMEM medium. Macrophages were lysed after 12 h, and these suspensions were diluted and plated on LB prior to CFU counting. CFU/well was determined as previously described in the infection experiments using macrophages and M. smegmatis.

[2] = test system: HepG2 cells; experiment: Cytotoxicity on HepG2 cells (MTT); assay type: cell-based, human; settings: 24 h; for effect on HepG2 cell viability: 30 to 120 µM, MTT; for IC50: Homo sapiens, HepG2, estimated
Description: (§1) Cytotoxicity was evaluated using the MTT method. For this purpose, two cell lines were tested: Vero E6 and HepG2. Both cell lines were seeded at 1 × 10^4 cells/well in 96-well microtiter plates and incubated overnight to adhere. The culture medium was carefully aspirated and replaced with 100 µL DMEM plus 100 µL of test compound solutions (CP, CA, and DE), yielding final concentrations ranging from 30 to 120 µM (1% DMSO, v/v). Cells were incubated with test compounds for 24 h at 37 °C in a 5% CO2 atmosphere. MTT solution (0.5 mg/mL) was subsequently added, and cells were incubated for an additional 3 h. The resulting formazan crystals were dried at room temperature for 24 h and dissolved in DMSO. Absorbance was measured at 570 nm (microplate reader EL800, BioTek, Winooski, VT, USA). Cell viability was calculated as previously described in the RAW 264.7 cell viability assay section.

[3] = test system: M. tuberculosis H37Ra; experiment: M. tuberculosis susceptibility by CFU enumeration; assay type: cell-based, Mycobacterium tuberculosis; settings: H37Ra, 48 h, CFU
Description: Next, CP, CA, and DE were diluted in Middlebrook 7H9 plus 10% OADC for the cellular susceptibility assay with M. tuberculosis H37Ra to yield concentrations up to 15 µM, 30 µM, and 15 µM, respectively. RIF at 0.03 µM was used as a positive control. The final DMSO concentration in all wells was 2.5%. The M. tuberculosis suspension was diluted in 7H9 plus 10% OADC to achieve an optical density of 0.006 at 595 nm, and 100 μL was then added to each well. Plates were covered, sealed with parafilm, and incubated at 37 °C for 48 h. After incubation, aliquots were removed, diluted, and plated in Middlebrook 7H10 agar plus 10% OADC. Plates were incubated at 37 °C for 4 weeks, and CFU were counted. CFU numbers were expressed as log10(CFU/mL).

[4] = test system: M. tuberculosis H37Ra in RAW 264.7 macrophages; experiment: Preventive effects (pre-incubation) in M. tuberculosis-infected RAW 264.7 cells (CFU); assay type: cell-based, Mycobacterium tuberculosis; settings: for effect on M. tuberculosis CFU counts after pre-incubation and re-treatment: 12 h after infection
Description: For the second cellular infection test with M. tuberculosis H37Ra, RAW 264.7 cells were seeded in 96-well culture plates at a density of 4 × 10 ^3 cells/well in DMEM medium (with 10% FBS, without antibiotics) and incubated overnight at 37 °C with 5% CO2. Cells were pre-incubated with the CP (15 µM), DE (15 µM), and CA (30 µM) compounds. Infection of RAW 264.7 cells with M. tuberculosis was performed at a multiplicity of infection of 1:1 for 3 h at 37 °C with 5% CO2 [20]. Infected RAW 264.7 were then lysed with 0.1% Triton-X100, and suspensions were diluted and plated on Middlebrook 7H10 agar plus OADC. Remaining wells were then re-treated with the test substances in DMEM medium. Macrophages were lysed after 12 h and plated on Middlebrook 7H10 containing OADC prior to CFU counting. CFU/well was determined as previously described in the infection experiments using macrophages and M. smegmatis.

[5] = test system: M. tuberculosis H37Ra in RAW 264.7 macrophages; experiment: Therapeutic potential in M. tuberculosis-infected RAW 264.7 cells (CFU); assay type: cell-based, Mycobacterium tuberculosis; settings: for effect on M. tuberculosis in RAW 264.7: DE 15 μM, CA 30 and 15 μM, 24 h and 48 h
Description: For the infection test with M. tuberculosis H37Ra, RAW 264.7 were seeded in 96-well culture plates at a density of 4 × 10^3 cells/well in DMEM medium (with 10% FBS, without antibiotics) and incubated overnight at 37 °C with 5% CO2 [20]. Infection of RAW 264.7 cells with M. tuberculosis was performed at a multiplicity of infection of 1:1 for 3 h at 37 °C with 5% CO2. The medium with non-internalized bacteria was removed and infected cells were then treated with the tested substances in DMEM:CP (15 µM, 7.5 µM, and 3.25 µM), CA (30 µM), and DE (15 µM) for 24 h and CA (30 µM and 15 µM) and DE (15 µM) for 48 h. Macrophages were lysed after incubations with 0.1% Triton–X100, and these suspensions were diluted and plated on Middlebrook 7H10 plus 10% OADC. Plates were incubated for 4 weeks at 37 °C and data were expressed as log10(CFU/well).

[6] = test system: M. smegmatis within RAW 264.7 macrophages; experiment: Therapeutic potential in M. smegmatis-infected RAW 264.7 cells (CFU); assay type: cell-based, Mycobacterium smegmatis; settings: 24 h of treatment after infection; for reduction of bacterial burden, M. smegmatis within RAW 264.7: 15 μM, vs untreated controls
Description: For the first in vitro infection test with M. smegmatis, RAW 264.7 were seeded in 96-well culture plates at a density of 1 × 10^4 cells/well in DMEM medium (with 10% FBS, without antibiotics) and incubated overnight at 37 °C with 5% CO2 [20]. Infection of RAW 264.7 cells with M. smegmatis mc^2155 was performed at a multiplicity of infection of 1:1 for 2 h at 37 °C with 5% CO2. The medium with non-internalized bacteria was removed, and infected cells were then treated with the tested substances in DMEM: CP (15 µM, 7.5 µM and 3.25 µM), CA (30 µM, 15 µM, 7.5 µM and 3.25 µM), DE (15 µM, 7.5 µM and 3.25 µM), and DP (15 µM, 7.5 µM and 3.25 µM). Macrophages were lysed after 24 h with 0.1% Triton–X100, and these suspensions were diluted and plated on LB. CFU was determined after incubation of plates for 3 days at 37 °C. CFU numbers were expressed as log (CFU/well).

[7] = test system: Vero E6 cells; experiment: Cytotoxicity on Vero E6 cells (MTT); assay type: cell-based, monkey; settings: 24 h; for effect on Vero E6 cell viability: 30 to 120 µM, MTT; for IC50: Primates, Vero C1008, estimated
Description: as §1

[8] = 8 h pre-incubation, immediately after 2 h of infection

SMILES	decrease of CFU counts after pre-incubation, M. smegmatis ([1]; 30 μM, 8 h pre-incubation, immediately after 2 h of infection)	effect on HepG2 cell viability [2]	IC50 [2]	inhibitory concentration against M. tuberculosis [3]	effect on M. tuberculosis CFU counts after pre-incubation and re-treatment ([4]; 30 μM)	effect on M. tuberculosis in RAW 264.7 [5]	reduction of bacterial counts, M. smegmatis within RAW 264.7 ([6]; 30 μM)	effect on Vero E6 cell viability [7]	IC50 [7]	reduction of bacterial loads after pre-incubation, M. smegmatis [1, 8]	reduction of CFU counts after re-treatment, M. smegmatis [1]	effect on M. tuberculosis CFU counts after pre-incubation and re-treatment ([4]; 15 μM)	effect on M. tuberculosis in RAW 264.7, lower concentrations ([5]; 7.5 µM and 3.25 µM, 24 h)	decrease in CFU counts, M. tuberculosis in RAW 264.7 ([5]; 15 μM, 24 h of incubation)	reduction of bacterial burden, M. smegmatis within RAW 264.7 [6]	effect of pre-incubation on M. tuberculosis bacterial loads ([4]; 15 μM, immediately after 3 h of infection)
O=C(O)C1=Cc2c([nH]c3ccccc23)C(C(=O)O)=Cc2c1[nH]c1ccccc21 [CA, caulerpinic acid]	0.407 log10	did not significantly reduce cell viability	> 120 µM	greater than 30 μM	significant reductions in CFU counts	neither DE nor CA showed inhibitory effects at either timepoint	0.243 log10	did not significantly reduce cell viability	> 120 µM	–	–	–	–	–	–	–
COC(=O)/C1=C/c2c([nH]c3ccccc23)/C(C(=O)OC)=C\c2c1[nH]c1ccccc21 [CP, Caulerpin]	–	did not significantly reduce cell viability	> 120 µM	greater than 15 μM	–	–	–	did not significantly reduce cell viability	> 120 µM	0.360 log10	0.287 log10	significant reductions in CFU counts	no inhibitory effect	0.250 log10	0.230 log10 CFU	–
CCOC(=O)/C1=C/c2c([nH]c3ccccc23)/C(C(=O)OCC)=C\c2c1[nH]c1ccccc21 [DE, (6E,13E)-diethyl 5,12-dihydrocycloocta[1,2-b:5,6-b′]diindole-6,13-dicarboxylate]	–	did not significantly reduce cell viability	> 120 µM	greater than 15 μM	–	neither DE nor CA showed inhibitory effects at either timepoint	–	did not significantly reduce cell viability	> 120 µM	0.402 log10	0.182 log10	significant reductions in CFU counts	–	–	0.430 log10 CFU	significantly reduced bacterial loads
